What is called IC50 is the midpoint of a concentration-inhibition curve.

This passage reports response vs control in vivo and IC50 results from patent US20100168079A1 (priority 2008, published 2010).

Like-named read-outs stand apart in the source and are kept apart here.

The test system of one experiment is circulating lymphocytes. The experiment in a line: Measurement of Circulating Lymphocytes. The experiment is classed as in vivo, Rats (Lewis strain, male). The following applies: Rattus norvegicus, Lymphocyte, read-out: Residual Lymphocyte Counts 14 hours after 30 mg/kg p.o. dosing. How it is done: The compounds of formula (I) typically induce the depletion of blood lymphocyte as may be determined in the assay described below. Moreover, compounds of formula (I) are typically efficacious in the said assay also when administered via the per oral route of administration.
Measurement of Circulating Lymphocytes:
The test compounds (or salts thereof) are dissolved in a vehicle such as water, saline, PEG (polyethylene glycol) 200, or PBS (phosphate buffered saline). Rats (Lewis strain, male, 6-12 weeks old) are administered up to 100 mg/kg of the test compounds in 2 ml/kg vehicle via per oral or subcutaneous application. The vehicle or a reference salt and FTY720 (0.3 mg/kg) are included as negative and positive controls, respectively.
Blood is collected from the sublingual vein before and 2, 8 and 24 hours or 14, 18 and 24 hours after the test compound administration under short isoflurane anesthesia. Whole blood samples are subjected to hematology analysis. Peripheral lymphocyte counts are determined using an automated analyzer. The Haemathology System uses a combination of light scatter, cytochemical staining and nuclear density on two independent channels to measure the total and differential white cell counts. Two to four rats are used to assess the lymphocyte depletion activity of each compound screened. The data are presented as mean±SEM.

The target in the next experiment is T1, human S1P1 receptors (Homo sapiens, UniProt P21453).
T1 construct: myc (N); expressed in transfected cells; host or cells: HeLa (human cervix carcinoma, ATCC CCL2), HeLa-S1P1/Gα16 cell clone 1
T1 sequence (P21453 whole entry): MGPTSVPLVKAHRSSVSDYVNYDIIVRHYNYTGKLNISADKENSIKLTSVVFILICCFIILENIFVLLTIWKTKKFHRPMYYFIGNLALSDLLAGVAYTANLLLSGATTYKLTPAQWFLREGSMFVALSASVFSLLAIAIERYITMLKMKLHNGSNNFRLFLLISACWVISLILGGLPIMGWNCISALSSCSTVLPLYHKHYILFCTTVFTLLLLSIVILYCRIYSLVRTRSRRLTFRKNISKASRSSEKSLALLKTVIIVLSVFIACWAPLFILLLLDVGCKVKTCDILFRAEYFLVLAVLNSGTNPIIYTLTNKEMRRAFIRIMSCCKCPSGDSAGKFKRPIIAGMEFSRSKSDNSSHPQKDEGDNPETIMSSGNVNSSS
The experiment can be described thus: Human S1P1 Receptor Calcium FLIPR Antagonist Assay (HeLa Gα16 S1P1). Type of experiment: cell-based. The following applies: relative antagonism of Ca2+ signal evoked by probing agonist GNF-AC-1 at EC80; HeLa-S1P1/Gα16 cells. An outline of the steps:
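HeLa Gα16 cells expressing S1P1 loaded for calcium fluorescence on FLIPR; compounds added in HBSS with 0.1% BSA, then agonist at EC80 20-30 min later. IC50 from (Fmax-Fmin)/Fmin versus log compound concentration.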

The mark [1] stands for this setting: male Lewis rats, 14 hours after oral 30 mg/kg, compared to vehicle-only group, mean±SEM.

On to `Cc1cc([C@@H](C)Nc2cccc(-c3cc(C)c(C(=O)N[C@@H](C)C(=O)O)c(C)c3)c2)ccc1Cl` [Example 3, (S)-2-({3′-[(R)-1-(4-Chloro-3-methyl-phenyl)-ethylamino]-3,5-dimethyl-biphenyl-4-carbonyl}-amino)-propionic acid], for which the response vs control in vivo at 30 mg/kg with circulating lymphocytes (po, 14 h) turned out to be 15.5%.

As for `CC[C@@H](Nc1cccc(-c2cc(C)c(C(=O)N[C@@H](C)C(=O)O)c(C)c2)c1)c1ccc(Cl)c(C)c1` [Example 6, (S)-2-({3′-[(R)-1-(4-Chloro-3-methyl-phenyl)-propylamino]-3,5-dimethyl-biphenyl-4-carbonyl}-amino)-propionic acid], the IC50 on human S1P1 receptors came to 2 nM. Besides, in the experiment on circulating lymphocytes (setting [1]), the response vs control in vivo at 30 mg/kg was 15.9%.

Take `Cc1cc(C(C)Nc2cccc(-c3cc(C)c(C(=O)NC4(C(=O)O)CC4)c(C)c3)c2)ccc1Cl` (stereo not shown) [Example 7, 1-({3′-[1-(4-Chloro-3-methyl-phenyl)-ethylamino]-3,5-dimethyl-biphenyl-4-carbonyl}-amino)-cyclopropanecarboxylic acid]: the IC50 on human S1P1 receptors amounted to 2 nM. For the same compound, the response vs control in vivo at 30 mg/kg in the experiment with circulating lymphocytes (setting [1]) stood at 14.8%.

As to `Cc1cc([C@@H](C)Nc2cccc(-c3cc(C)c(C(=O)NC4(C(=O)O)CC4)c(C)c3)c2)ccc1Cl` [Example 8, 1-({3′-[(R)-1-(4-Chloro-3-methyl-phenyl)-ethylamino]-3,5-dimethyl-biphenyl-4-carbonyl}-amino)-cyclopropanecarboxylic acid], at human S1P1 receptors, the IC50 came to 2 nM. For the same compound, in the experiment with circulating lymphocytes (setting [1]), the response vs control in vivo at 30 mg/kg was 16.7%.

Take `CCC(Nc1cccc(-c2cc(C)c(C(=O)N[C@@H](C)C(=O)O)c(C)c2)c1)c1ccc(Cl)c(Cl)c1` (stereo partly drawn) [Example 20, (S)-2-({3′-[1-(3,4-Dichloro-phenyl)-propylamino]-3,5-dimethyl-biphenyl-4-carbonyl}-amino)-propionic acid]: on human S1P1 receptors, the IC50 was 8 nM. Besides, the response vs control in vivo at 30 mg/kg in the experiment on circulating lymphocytes (setting [1]) was determined as 18.7%.

Turning to `Cc1cc(C(C)Nc2ccc(F)c(-c3cc(C)c(C(=O)N[C@@H](C)C(=O)O)c(C)c3)c2)ccc1Cl` (stereo partly drawn) [Example 22, (S)-2-({5′-[1-(4-Chloro-3-methyl-phenyl)-ethylamino]-2′-fluoro-3,5-dimethyl-biphenyl-4-carbonyl}-amino)-propionic acid], at human S1P1 receptors, the IC50 was 2 nM. Also, in the experiment with circulating lymphocytes (setting [1]), the response vs control in vivo at 30 mg/kg was found to be 18.7%.

On to `Cc1cc([C@@H](C)Nc2ccc(F)c(-c3cc(C)c(C(=O)N[C@@H](C)C(=O)O)c(C)c3)c2)ccc1Cl` [Example 23, (S)-2-({5′-[(R)-1-(4-Chloro-3-methyl-phenyl)-ethylamino]-2′-fluoro-3,5-dimethyl-biphenyl-4-carbonyl}-amino)-propionic acid], for which, on human S1P1 receptors, the IC50 amounted to 1 nM. Also, the response vs control in vivo at 30 mg/kg in the experiment with circulating lymphocytes (setting [1]) was 17.4%.

In the case of `CCC(Nc1ccc(F)c(-c2cc(C)c(C(=O)N[C@@H](C)C(=O)O)c(C)c2)c1)c1ccc(Cl)c(C)c1` (stereo partly drawn) [Example 24, (S)-2-({5′-[1-(4-Chloro-3-methyl-phenyl)-propylamino]-2′-fluoro-3,5-dimethyl-biphenyl-4-carbonyl}-amino)-propionic acid], at human S1P1 receptors, the IC50 was found to be 1 nM. Besides, the response vs control in vivo at 30 mg/kg with circulating lymphocytes (setting [1]) was 16.8%.

Consider `CCC(Nc1ccc(F)c(-c2cc(C)c(C(=O)NC3(C(=O)O)CC3)c(C)c2)c1)c1ccc(Cl)c(C)c1` (stereo not shown) [Example 25, 1-({5′-[1-(4-Chloro-3-methyl-phenyl)-propylamino]-2′-fluoro-3,5-dimethyl-biphenyl-4-carbonyl}-amino)-cyclopropanecarboxylic acid], for which, at human S1P1 receptors, the IC50 turned out to be 2 nM. Moreover, in the experiment on circulating lymphocytes (setting [1]), the response vs control in vivo at 30 mg/kg was found to be 15%.

In the case of `Cc1cc(C(C)Nc2ccc(F)c(-c3cc(C)c(C(=O)NC4(C(=O)O)CC4)c(C)c3)c2)ccc1Cl` (stereo not shown) [Example 26, 1-({5′-[1-(4-Chloro-3-methyl-phenyl)-ethylamino]-2′-fluoro-3,5-dimethyl-biphenyl-4-carbonyl}-amino)-cyclopropanecarboxylic acid], the half-maximal inhibitory concentration (IC50) on human S1P1 receptors turned out to be 1 nM. Besides, the response vs control in vivo at 30 mg/kg in the experiment with circulating lymphocytes (setting [1]) was 12.9%.

In the case of `Cc1cc([C@@H](C)Nc2cccc(-c3cc(C)c(C(=O)N(C)[C@@H](C)C(=O)O)c(C)c3)c2)ccc1Cl` [Example 73], the half-maximal inhibitory concentration (IC50) on human S1P1 receptors was 4 nM. In addition, in the experiment with circulating lymphocytes (setting [1]), the response vs control in vivo at 30 mg/kg amounted to 16.6%.

In the case of `Cc1cc(C(Nc2cccc(-c3cc(C)c(C(=O)N[C@@H](C)C(=O)O)c(C)c3)c2)C(F)(F)F)ccc1Cl` (stereo partly drawn) [Example 74, (S)-2-({3′-[1-(4-Chloro-3-methyl-phenyl)-2,2,2-trifluoro-ethylamino]-3,5-dimethyl-biphenyl-4-carbonyl}-amino)-propionic acid], the IC50 on human S1P1 receptors was determined as 8 nM. Further, in the experiment on circulating lymphocytes (setting [1]), the response vs control in vivo at 30 mg/kg was 15.5%.

In the case of `Cc1cc(C(Nc2cccc(-c3cc(C)c(C(=O)N[C@@H](C)C(=O)O)c(C)c3)c2)C(F)F)ccc1Cl` (stereo partly drawn) [Example 75, (S)-2-({3′-[1-(4-Chloro-3-methyl-phenyl)-2,2-difluoro-ethylamino]-3,5-dimethyl-biphenyl-4-carbonyl}-amino)-propionic acid], the IC50 on human S1P1 receptors amounted to 6 nM. In addition, the response vs control in vivo at 30 mg/kg in the experiment on circulating lymphocytes (setting [1]) stood at 19.4%.

On to `Cc1cc([C@@H](C)Nc2cccc(-c3cc(C)c(C(=O)N(C)C4(C(=O)O)CC4)c(C)c3)c2)ccc1Cl` [Example 81, 1-({3′-[(R)-1-(4-Chloro-3-methyl-phenyl)-ethylamino]-3,5-dimethyl-biphenyl-4-carbonyl}-methyl-amino)-cyclopropanecarboxylic acid], for which the IC50 at human S1P1 receptors was determined as 1 nM. Besides, the response vs control in vivo at 30 mg/kg in the experiment on circulating lymphocytes (setting [1]) came to 15.4%.

In the case of `Cc1cc(C(C)(C)Nc2cccc(-c3cc(C)c(C(=O)N[C@@H](C)C(=O)O)c(C)c3)c2)ccc1Cl` [Example 82, (S)-2-({3′-[1-(4-Chloro-3-methyl-phenyl)-1-methyl-ethylamino]-3,5-dimethyl-biphenyl-4-carbonyl}-amino)-propionic acid], at human S1P1 receptors, the IC50 was determined as 3 nM. Besides, the response vs control in vivo at 30 mg/kg in the experiment on circulating lymphocytes (setting [1]) was determined as 10.8%.

With `Cc1cc(C(C)(C)Nc2cccc(-c3cc(C)c(C(=O)N(C)[C@@H](C)C(=O)O)c(C)c3)c2)ccc1Cl` [Example 83, (S)-2-({3′-[1-(4-Chloro-3-methyl-phenyl)-1-methyl-ethylamino]-3,5-dimethyl-biphenyl-4-carbonyl}-methyl-amino)-propionic acid], the IC50 on human S1P1 receptors was 2 nM. Further, the response vs control in vivo at 30 mg/kg in the experiment on circulating lymphocytes (setting [1]) stood at 15.2%.

As for `Cc1cc(C(C)(C)Nc2cccc(-c3cc(C)c(C(=O)NC4(C(=O)O)CC4)c(C)c3)c2)ccc1Cl` [Example 84, 1-({3′-[1-(4-Chloro-3-methyl-phenyl)-1-methyl-ethylamino]-3,5-dimethyl-biphenyl-4-carbonyl}-amino)-cyclopropanecarboxylic acid], on human S1P1 receptors, the IC50 worked out at 2 nM. In the experiment with circulating lymphocytes (setting [1]), the response vs control in vivo at 30 mg/kg is 18.6%.

On to `Cc1cc(C(C)(C)Nc2cccc(-c3cc(C)c(C(=O)N(C)C4(C(=O)O)CC4)c(C)c3)c2)ccc1Cl` [Example 85, 1-({3′-[1-(4-Chloro-3-methyl-phenyl)-1-methyl-ethylamino]-3,5-dimethyl-biphenyl-4-carbonyl}-methyl-amino)-cyclopropanecarboxylic acid], for which, on human S1P1 receptors, the IC50 amounted to 11 nM. The response vs control in vivo at 30 mg/kg with circulating lymphocytes (setting [1]) was determined as 14.7%.

Turning to `Cc1cc([C@@H](C)Nc2cccc(-c3cc(C)c(C(=O)NC4(C(=O)O)CC4)c(C)c3)c2)cc(C)c1Cl` [Example 99, 1-({3′-[(R)-1-(4-Chloro-3,5-dimethyl-phenyl)-ethylamino]-3,5-dimethyl-biphenyl-4-carbonyl}-amino)-cyclopropanecarboxylic acid], the IC50 on human S1P1 receptors is 1 nM. The response vs control in vivo at 30 mg/kg in the experiment on circulating lymphocytes (setting [1]) came out at 15.5%.

With `Cc1cc([C@@H](C)Nc2cccc(-c3cc(C)c(C(=O)N[C@@H](C)C(=O)O)c(C)c3)c2)cc(C)c1Cl` [Example 100, (S)-2-({3′-[(R)-1-(4-Chloro-3,5-dimethyl-phenyl)-ethylamino]-3,5-dimethyl-biphenyl-4-carbonyl}-amino)-propionic acid], the IC50 on human S1P1 receptors amounted to 1 nM. For the same compound, the response vs control in vivo at 30 mg/kg in the experiment on circulating lymphocytes (setting [1]) was found to be 20.9%.

Regarding `Cc1cc(C(Nc2cccc(-c3cc(C)c(C(=O)N(C)[C@@H](C)C(=O)O)c(C)c3)c2)C(F)F)ccc1Cl` (stereo partly drawn) [Example 103, (S)-2-({3′-[1-(4-Chloro-3-methyl-phenyl)-2,2-difluoro-ethylamino]-3,5-dimethyl-biphenyl-4-carbonyl}-methyl-amino)-propionic acid], the half-maximal inhibitory concentration (IC50) on human S1P1 receptors amounted to 3 nM. Besides, in the experiment with circulating lymphocytes (setting [1]), the response vs control in vivo at 30 mg/kg stood at 13.9%.

In the case of `CC[C@H](c1ccc(Cl)c(C)c1)N(C)c1cccc(-c2cc(C)c(C(=O)N(C)[C@@H](C)C(=O)O)c(C)c2)c1` [Example 105, (S)-2-[(3′-{[(R)-1-(4-Chloro-3-methyl-phenyl)-propyl]-methyl-amino}-3,5-dimethyl-biphenyl-4-carbonyl)-methyl-amino]-propionic acid], on human S1P1 receptors, the IC50 was 10 nM. The response vs control in vivo at 30 mg/kg in the experiment with circulating lymphocytes (setting [1]) was 20.9%.
